This is an account of results in patent publication US9115151B2, “Substituted 2,10-dihydro-9-oxa-1,2,4A-triazaphenanthren-3-ones and uses thereof” (AbbVie Inc., priority 2012, dated 2015).

As usually defined, the IC50 is the concentration at which inhibition is half-maximal.

For assay [1], the target named is T1, PKCθ (Homo sapiens, UniProt Q04759).
T1 construct: His6; purchased Millipore; host or cells: baculovirus in Sf21 cells
The experiment in a line: In vitro enzyme assay (time-resolved fluorescence kinase assay), PKCθ, 100 μM ATP. Format: biochemical. Here is the method: (§1) PKC kinase activity was assayed by time-resolved fluorescence in vitro kinase assay. Unless otherwise indicated, all reagents used for enzyme assays were obtained from Sigma. Specifically, 5 μL N- or C-terminal His6-tagged, recombinant, human PKC, expressed by baculovirus in Sf21 cells (Millipore) was mixed with 5 μL inhibitor (various concentrations, 5% final DMSO), 5 μL Bio-cdc peptide (Biotin-Ahx-[…], 2 μM final concentration, New England Peptide) and 5 μL of ATP (100 μM or 1000 μM final concentration) in 1× reaction buffer, 20 μL final volume.
(§2) Following a sixty minute incubation at room temperature, the reaction was quenched with 5 μL of 0.5 M EDTA pH 7.5.
(§3) Background counts from a minus enzyme control is subtracted from all data. Data (after background correction) are converted to percent activity by dividing by the signal obtained from PKC without drug sample.

Assay [2] has as its target T2, PKCα (Homo sapiens, UniProt P17252).
T2 construct: His6; purchased Millipore; host or cells: baculovirus in Sf21 cells
Briefly: In vitro enzyme assay (time-resolved fluorescence kinase assay), PKCα, 100 μM ATP. The class given is biochemical. The conditions noted are these: 100 μM ATP; read-out: PKCα enzyme IC50. Here is the method: as §1, §2, §3

For assay [3], the system named is CD3/CD28 induced IL-2 in human T-Blasts. The experiment in a line: T-Blasts CD3/CD28 induced IL-2 assay. The class given is cell-based. The conditions noted are these: read-out: CD3/CD28-stimulated IL2 in T-blasts EC50. Here is the method:
T-Blasts CD3/CD28 Induced IL-2 Assay
Human T-Blasts are generated using PHA following standard protocols. T-Blasts are freeze aliquoted and vials thawed as required. […] Seed 2×10^5/100 μL cell suspension per well in flat bottomed 96 well plate. Compound dilutions are prepared from 100% DMSO stocks. A total of 8 serial dilutions are made (1/3 in 100% DMSO). Compounds are diluted 1/50 in growth medium to prepare 4× stocks of each tested concentration. 50 μL from each 4× stock concentration is added to the 100 μL cell suspension and incubated for 30 minutes prior stimulus addition. A 4× stimulus stock is prepared using anti-CD3+anti-CD28 antibodies. Antibody mix is added to the cell/compounds suspension in 50 μL at 5 μg/mL final concentration. Compounds are tested in duplicates. Plates are transferred to 37° C./CO2 incubator for 24 hours. After incubation 130 μL of supernatant is collected for IL-2 determination while MTT toxicity analysis is performed on remaining cells/medium.

T1 sequence (Q04759 whole entry): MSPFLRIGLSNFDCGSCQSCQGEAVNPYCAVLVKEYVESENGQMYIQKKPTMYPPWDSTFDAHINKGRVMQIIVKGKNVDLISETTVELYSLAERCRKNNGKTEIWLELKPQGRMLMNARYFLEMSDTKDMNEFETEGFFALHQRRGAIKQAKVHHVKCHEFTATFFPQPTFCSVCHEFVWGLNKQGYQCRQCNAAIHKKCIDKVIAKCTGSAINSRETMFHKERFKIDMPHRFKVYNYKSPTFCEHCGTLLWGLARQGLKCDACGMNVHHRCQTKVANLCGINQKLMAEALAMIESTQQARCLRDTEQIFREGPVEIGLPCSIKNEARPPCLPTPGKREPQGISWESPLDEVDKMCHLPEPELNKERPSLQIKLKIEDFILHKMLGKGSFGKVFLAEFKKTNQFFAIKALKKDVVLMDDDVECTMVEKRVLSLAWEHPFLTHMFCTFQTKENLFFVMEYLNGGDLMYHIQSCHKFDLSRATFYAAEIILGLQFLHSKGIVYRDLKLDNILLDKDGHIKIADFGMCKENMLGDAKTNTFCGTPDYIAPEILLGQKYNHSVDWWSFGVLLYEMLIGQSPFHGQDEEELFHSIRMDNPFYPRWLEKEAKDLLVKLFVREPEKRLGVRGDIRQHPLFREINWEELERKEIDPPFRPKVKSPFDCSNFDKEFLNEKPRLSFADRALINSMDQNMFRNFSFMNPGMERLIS

As to `C[C@@H]1C(=O)NN=C2COc3cc(C4CC4)c(NC4CNC4)cc3N21` (single isomer, unassigned) [Example 64-1, trifluoroacetic acid], the IC50 in assay [1] is less than 250 nM; in assay [2], 1000 to 10000 nM. In assay [3], the EC50 was less than 250 nM.
As to `C[C@H]1C(=O)NN=C2COc3cc(C4CC4)c(NC4CNC4)cc3N21` (single isomer, unassigned) [Example 64-2, trifluoroacetic acid], the IC50 in assay [1] was 250 to 1000 nM; in assay [2] it was 1000 to 10000 nM. Also, the EC50 in assay [3] lay in the range of 1000 to 10000 nM.
For `CC(C)c1cc2c(cc1OC1CNC1)N1C(=NNC(=O)[C@H]1C)CO2` (single isomer, unassigned) [Example 96, trifluoroacetic acid], the values for the IC50 in assay [1] and in assay [2] were less than 250 nM and 1000 to 10000 nM, respectively. Further, the EC50 in assay [3] is less than 250 nM.
Consider `C[C@@H]1C(=O)NN=C2COc3ccc([C@H]4CCN[C@H](Cc5ccccc5)C4)cc3N21` (single isomer, unassigned) [Example 109-1, trifluoroacetic acid], for which the IC50 in assay [1] is less than 250 nM; in assay [2], 1000 to 10000 nM. For the same compound, in assay [3], the EC50 is less than 250 nM.
For `C[C@@H]1C(=O)NN=C2COc3ccc([C@@H]4CCN[C@H](Cc5ccccc5)C4)cc3N21` (single isomer, unassigned) [Example 109-2, trifluoroacetic acid], the half-inhibitory concentration (IC50) in assay [1] is less than 250 nM; in assay [2], 1000 to 10000 nM. Also, in assay [3], the EC50 was less than 250 nM.
`CC(C)c1cc2c(cc1OC1(C)CNC1)N1C(=NNC(=O)[C@@H]1C)CO2` (single isomer, unassigned) [Example 121-1, trifluoroacetic acid]: the 50% inhibitory concentration (IC50) was less than 250 nM in assay [1] and 1000 to 10000 nM in assay [2]. Besides, the EC50 in assay [3] is 250 to 1000 nM.
The corresponding values for `CC(C)c1cc2c(cc1OC1(C)CNC1)N1C(=NNC(=O)[C@H]1C)CO2` (single isomer, unassigned) [Example 121-2, trifluoroacetic acid] are 250 to 1000 nM, 1000 to 10000 nM and 1000 to 10000 nM.
Regarding `C[C@@H]1C(=O)NN=C2COc3cc(C(F)(F)F)c([C@@H](C)C4(C)CNC4)cc3N21` (single isomer, unassigned) [Example 147-1, trifluoroacetic acid], the IC50 in assay [1] was less than 250 nM; in assay [2], 250 to 1000 nM. For the same compound, the EC50 in assay [3] is less than 250 nM.
Consider `C[C@H]1C(=O)NN=C2COc3cc(-c4ccccc4F)c(N(C)[C@@]4(C)CCN(C)C4)cc3N21` (single isomer, unassigned) [Example 198-1], for which the half-inhibitory concentration (IC50) in assay [1] was less than 250 nM; in assay [2], 1000 to 10000 nM. The EC50 in assay [3] was 1000 to 10000 nM.
As to `C[C@H]1C(=O)NN=C2COc3cc(-c4ccccc4F)c(N(C)[C@]4(C)CCN(C)C4)cc3N21` (single isomer, unassigned) [Example 198-2], the IC50 in assay [1] was less than 250 nM; in assay [2] it was 1000 to 10000 nM. Further, in assay [3], the EC50 lay within 1000 to 10000 nM.
As for `C[C@@H]1C(=O)NN=C2COc3cc(-c4ccccc4F)c(N(C)[C@@]4(C)CCN(C)C4)cc3N21` (single isomer, unassigned) [Example 198-3], the values for the IC50 in assay [1] and in assay [2] were less than 250 nM and 250 to 1000 nM, respectively. Moreover, the EC50 in assay [3] was less than 250 nM.
For `C[C@@H]1C(=O)NN=C2COc3cc(-c4ccccc4F)c(N(C)[C@]4(C)CCN(C)C4)cc3N21` (single isomer, unassigned) [Example 198-4], the IC50 in assay [1] was less than 250 nM; in assay [2], 250 to 1000 nM. The EC50 in assay [3] is less than 250 nM.
For `C[C@@H]1C(=O)NN=C2COc3cc(-c4ccccc4Cl)c(NC4CNC4)cc3N21` [Example 2], the IC50 in assay [1] is less than 250 nM; in assay [2], 250 to 1000 nM. The EC50 in assay [3] is less than 250 nM.
`C[C@@H]1C(=O)NN=C2COc3cc(-c4ccccc4F)c(NC4CNC4)cc3N21` [Example 3]: the values for the IC50 in assay [1] and in assay [2] were less than 250 nM and 1000 to 10000 nM, respectively. Besides, in assay [3], the EC50 is less than 250 nM.
For `C[C@@H]1C(=O)NN=C2COc3cc(-c4ccc(F)cc4F)c(NC4CNC4)cc3N21` [Example 4], the IC50 in assay [1] is less than 250 nM; in assay [2] it was 1000 to 10000 nM. Further, the EC50 in assay [3] was less than 250 nM.
Turning to `Cc1ccccc1-c1cc2c(cc1NC1CNC1)N1C(=NNC(=O)[C@H]1C)CO2` [Example 5], the 50% inhibitory concentration (IC50) was less than 250 nM in assay [1] and 1000 to 10000 nM in assay [2]. Also, the EC50 in assay [3] is less than 250 nM.
For `C[C@@H]1C(=O)NN=C2COc3cc(-c4cccc(F)c4)c(NC4CNC4)cc3N21` [Example 6], the IC50 in assay [1] was less than 250 nM; in assay [2] it was 1000 to 10000 nM. For the same compound, the EC50 in assay [3] was less than 250 nM.
For the compound `C[C@@H]1C(=O)NN=C2COc3cc(-c4ccc(Cl)cc4)c(NC4CNC4)cc3N21` [Example 7], the IC50 was less than 250 nM in assay [1] and 1000 to 10000 nM in assay [2]. In addition, in assay [3], the EC50 was less than 250 nM.
As to `C[C@@H]1C(=O)NN=C2COc3cc(-c4ccc(Cl)cc4Cl)c(NC4CNC4)cc3N21` [Example 8], the concentration for half-maximal inhibition (IC50) was less than 250 nM in assay [1] and 1000 to 10000 nM in assay [2]. Moreover, the EC50 in assay [3] was less than 250 nM.
For `C[C@@H]1C(=O)NN=C2COc3cc(-c4ccc(F)cc4)c(NC4CNC4)cc3N21` [Example 9], the figures for the IC50 in assay [1] and in assay [2] were less than 250 nM and 1000 to 10000 nM, respectively. In assay [3], the EC50 was less than 250 nM.
On to `C[C@@H]1C(=O)NN=C2COc3cc(-c4cccc5ccccc45)c(NC4CNC4)cc3N21` [Example 10], for which the results for the IC50 in assay [1] and in assay [2] were less than 250 nM and 1000 to 10000 nM, respectively. Moreover, the EC50 in assay [3] was less than 250 nM.
For the compound `C[C@@H]1C(=O)NN=C2COc3cc(-c4ccc(OC(F)(F)F)cc4)c(NC4CNC4)cc3N21` [Example 11], the IC50 in assay [1] is 250 to 1000 nM; in assay [2] it was 1000 to 10000 nM. Further, the EC50 in assay [3] is less than 250 nM.
`Cc1cc2c(cc1N(C)C1CNC1)N1C(=NNC(=O)C1C)CO2` (stereo not drawn) [Example 55, 6-(Azetidin-3-yl-methyl-amino)-4,7-dimethyl-2,10-dihydro-9-oxa-1,2,4a-triaza-phenanthren-3-one trifluoroacetic acid]: the 50% inhibitory concentration (IC50) in assay [1] was 250 to 1000 nM; in assay [2], 1000 to 10000 nM. For the same compound, the EC50 in assay [3] was 1000 to 10000 nM.
On to `CC(C)Cc1cc2c(cc1NC1CNC1)N1C(=NNC(=O)C1C)CO2` (stereo not drawn) [Example 58], for which the IC50 in assay [1] was less than 250 nM; in assay [2], 1000 to 10000 nM. In addition, the EC50 in assay [3] is less than 250 nM.
On to `CCc1cc2c(cc1NC1CNC1)N1C(=NNC(=O)C1C)CO2` (stereo not drawn) [Example 59], for which the IC50 in assay [1] was less than 250 nM; in assay [2] it was 1000 to 10000 nM. Besides, the EC50 in assay [3] was in the range of 250 to 1000 nM.
For `CC1C(=O)NN=C2COc3cc(C4CCCC4)c(NC4CNC4)cc3N21` (stereo not drawn) [Example 60], in that order: less than 250 nM, 1000 to 10000 nM and 250 to 1000 nM.
Take `C[C@@H]1C(=O)NN=C2COc3cc([C@@H](C)C(F)(F)F)c(NC4CNC4)cc3N21` [Example 61]: the half-maximal inhibitory concentration (IC50) in assay [1] was less than 250 nM; in assay [2], 1000 to 10000 nM. The EC50 in assay [3] lay in the range of 250 to 1000 nM.
Regarding `C[C@@H]1C(=O)NN=C2COc3cc([C@H](C)C(F)(F)F)c(NC4CNC4)cc3N21` [Example 62], the IC50 in assay [1] is less than 250 nM; in assay [2], 1000 to 10000 nM. Besides, in assay [3], the EC50 lay within 250 to 1000 nM.
Regarding `CC1C(=O)NN=C2COc3cc(C(C)C(F)(F)F)c(NC4(C)CNC4)cc3N21` (stereo not drawn) [Example 63], the results for the IC50 in assay [1] and in assay [2] were less than 250 nM and 1000 to 10000 nM, respectively. For the same compound, the EC50 in assay [3] is less than 250 nM.
For `CC1C(=O)NN=C2COc3cc(C4CC4)c(OC4CNC4)cc3N21` (stereo not drawn) [Example 65, 6-(Azetidin-3-yloxy)-7-cyclopropyl-4-methyl-2,10-dihydro-9-oxa-1,2,4a-triaza-phenanthren-3-one trifluoroacetic acid], the IC50 in assay [1] is less than 250 nM; in assay [2], 1000 to 10000 nM. Moreover, the EC50 in assay [3] is less than 250 nM.
Turning to `CC1C(=O)NN=C2COc3cc(-c4ccccc4)c(OC4CNC4)cc3N21` (stereo not drawn) [Example 66], the IC50 in assay [1] was less than 250 nM; in assay [2], 1000 to 10000 nM. In addition, the EC50 in assay [3] was less than 250 nM.
In the case of `Cc1cc2c(cc1OC1CNC1)N1C(=NNC(=O)C1C)CO2` (stereo not drawn) [Example 67], the IC50 is less than 250 nM in assay [1] and 1000 to 10000 nM in assay [2]. Further, the EC50 in assay [3] is less than 250 nM.
Take `CC(C)c1cc2c(cc1OC1CNC1)N1C(=NNC(=O)C1C)CO2` (stereo not drawn) [Example 68, 6-(Azetidin-3-yloxy)-7-isopropyl-4-methyl-2,10-dihydro-9-oxa-1,2,4a-triaza-phenanthren-3-one trifluoroacetic acid]: the IC50 in assay [1] lay in the range of 250 to 1000 nM; in assay [2] it was 1000 to 10000 nM. In addition, the EC50 in assay [3] was in the range of 250 to 1000 nM.
For the compound `CC1C(=O)NN=C2COc3ccc(OC4(C)CNC4)cc3N21` (stereo not drawn) [Example 69, 4-Methyl-6-(3-methyl-azetidin-3-yloxy)-2,10-dihydro-9-oxa-1,2,4a-triaza-phenanthren-3-one trifluoroacetic acid], the IC50 in assay [1] is less than 250 nM; in assay [2], 1000 to 10000 nM. Also, the EC50 in assay [3] was less than 250 nM.
